Experimental data as given in US20230065816A1, “METHODS FOR PREVENTING AND REVERSING OPIOID ANALGESIC TOLERANCE IN SUBJECTS WITH CHRONIC PAIN” (The Reasearch Foundation for Suny, priority 2020, published 2023).
Entries after “also recorded” stand apart in the source; their conditions may differ.

Legend:
[1] = system: rats with spinal nerve ligation (SpNL); assay: von Frey mechanical allodynia test, tolerance from chronic systemic morphine (s.c. morphine pellets); conditions: for reversal of spinal morphine antiallodynic tolerance induced by chronic systemic morphine, single agent: CSD or S-CSD 10 μg, PP2 or PP3 300 ng, i.t. on day 8, 45 min before i.t. morphine; for prevention of antiallodynic tolerance to chronic systemic morphine, male rats / prevention of antiallodynic tolerance to chronic systemic morphine, female rats: i.t. 45 min before s.c. morphine pellet implantation on days 1, 3, 5; for prevention of antiallodynic tolerance to chronic systemic morphine, male rats: 10 μg; for prevention of antiallodynic tolerance to chronic systemic morphine, female rats: dose 6 μg or 10 μg
[2] = system: rats with spinal nerve ligation (SpNL); assay: von Frey mechanical allodynia test, spinal morphine tolerance from chronic i.t. morphine; conditions: for reversal of spinal morphine antiallodynic tolerance by the single agent: CSD 10 μg or PP2 300 ng i.t. 45 min before i.t. morphine on day 8 or 9 of daily i.t. 15 μg morphine; for reversal of spinal morphine antiallodynic tolerance by the single agent / duration of reversal of morphine tolerance by the single agent: FIGS. 3A, 3B; for duration of reversal of morphine tolerance by the single agent: CSD 10 μg or PP2 300 ng i.t.
rats [3] = assay: tail flick latency test, spinal morphine tolerance from chronic i.t. morphine; conditions: 9 days of daily 15 μg i.t. morphine
rats [4] = assay: tail flick latency test, tolerance from chronic systemic morphine (s.c. morphine pellets); conditions: i.t. CSD with s.c. morphine pellets; FIG. 4B

## CC(C)(C)n1nc(-c2ccc(Cl)cc2)c2c(N)ncnc21 [PP2, 3-(4-chlorophenyl) 1-(1,1-dimethylethyl)-1H-pyrazolo[3,4-d]pyrimidin-4-amine]
[1]; CSD 10 μg or PP2 300 ng i.t. on day 8, chronic systemic morphine, FIGS. 6A, 6B
  duration of tolerance-reversing effect: less than 24 hours
[1]; FIGS. 6A, 6B
  reversal of spinal morphine antiallodynic tolerance induced by chronic systemic morphine, single agent: essentially fully restored i.t. morphine antiallodynic action; also recorded: fully restored i.t. morphine antiallodynic effects
[2]
  reversal of spinal morphine antiallodynic tolerance by the single agent: attenuated spinal opioid antiallodynic tolerance
[2]; chronic i.t. morphine
  duration of reversal of morphine tolerance by the single agent: lasted for multiple days
[2]; PP2 300 ng i.t. 45 min before i.t. morphine, chronic i.t. morphine, FIG. 3B
  share of opioid naive i.t. morphine responsiveness restored: approximately 60%

## Nc1ncnc2c1cnn2-c1ccccc1 [PP3, 1-Phenyl-1H-pyrazolo[3,4-d]pyrimidin-4-amine]
[1]; FIGS. 6A, 6B
  reversal of spinal morphine antiallodynic tolerance induced by chronic systemic morphine, single agent: failed to alter antiallodynic action of i.t. morphine; also recorded: devoid of any effect

## CN1CC[C@]23c4c5ccc(O)c4O[C@H]2[C@@H](O)C=C[C@H]3[C@H]1C5 [morphine, (5a,6a)-7,8-didehydro-4,5-epoxy-17-methylmorphinan-3,6-diol]
[1]; before pelleting, FIG. 5
  i.t. morphine antiallodynia ED50, opioid naive rats: 5.5 µg
[1]; chronic systemic morphine, FIG. 5
  fold increase of i.t. morphine ED50 in tolerant vs. opioid naive rats: 3.6 fold
[1]; day 7 of morphine pelleting, before PP2, FIG. 6B
  reduction of i.t. morphine antiallodynic effects by chronic systemic morphine: approximately 80%
[1]; s.c. morphine pellets, FIG. 5
  i.t. morphine antiallodynia ED50, chronic systemic morphine-treated (tolerant) rats: 19.7 µg
Rats [3]
  analgesic effect of i.t. morphine after chronic daily i.t. morphine (tolerance), tail flick: lost most of its analgesic effect
[2]; FIG. 1B
  i.t. morphine antiallodynia ED50, morphine naive rats: 3.9 µg
[2]; after chronic daily i.t. morphine, FIG. 1B
  i.t. morphine antiallodynia ED50, morphine tolerant rats: 13.1 µg
[2]; chronic daily i.t. morphine, FIG. 1B
  times more morphine required in tolerant than in naive rats for comparable antiallodynia: 3.4 times
[2]; i.t. morphine 15 μg daily, 6 to 9 days, no CSD/PP2
  antiallodynic responsiveness to i.t. morphine after chronic daily i.t. morphine (tolerance): complete loss of antiallodynic responsiveness; also recorded: lost most of its antiallodynic effectiveness

## H-Arg-Gln-Ile-Lys-Ile-Trp-Phe-Gln-Asn-Arg-Arg-Met-Lys-Trp-Lys-Lys-Asp-Gly-Ile-Trp-Lys-Ala-Ser-Phe-Thr-Thr-Phe-Thr-Val-Thr-Lys-Tyr-Trp-Phe-Tyr-Arg-OH (H-RQIKIWFQNRRMKWKKDGIWKASFTTFTVTKYWFYR-OH) [CSD]
[1]; FIGS. 6A, 6B
  reversal of spinal morphine antiallodynic tolerance induced by chronic systemic morphine, single agent: essentially fully restored i.t. morphine antiallodynic action
[1]; i.t. 6 μg CSD on day 9, reapplication on day 12, morphine pellets, FIG. 7 right panel
  reversal of tolerance and effect of reapplication of i.t. CSD, male rat: lasted through day 10; also recorded: again restored morphine antiallodynia
[1]; FIG. 4C
  prevention of antiallodynic tolerance to chronic systemic morphine, male rats: works identical in males as in females; also recorded: fully manifest
[1]; FIG. 4A
  prevention of antiallodynic tolerance to chronic systemic morphine, female rats: increase to cutoff in von Frey thresholds; also recorded: fully manifest
[1]; i.t. CSD 0.33 μg, virtually no pretreatment with i.t. morphine
  unmasking of antiallodynia of on boarded morphine pellet in systemic morphine tolerant animals: unmasked robust morphine (from on boarded morphine pellet) antiallodynia
[1]; i.t. CSD 6 μg before morphine pelleting, last on day 5, re-applied on day 11, FIG. 7 left panel
  prevention of tolerance and effect of reapplication of i.t. CSD, female rats: prevented morphine tolerance development; also recorded: morphine antiallodynia was fully manifest
[1]; i.t. CSD 3, 1, or 0.33 μg, chronic systemic morphine, data not shown
  reversal of tolerance at lower dose of CSD: Full reversal of tolerance development
[1]; i.t. CSD on days 1, 3, 5 with s.c. morphine pellets, FIG. 4A
  persistence of tolerance blockade after the last i.t. treatment (day 5), female rats: 3 days
[1]; i.t. CSD on days 1, 3, 5 with s.c. morphine pellets, FIG. 4C
  persistence of tolerance blockade after the last i.t. treatment (day 5), male rats: 3 days
[2]
  reversal of spinal morphine antiallodynic tolerance by the single agent: fully restored i.t morphine antiallodynia; also recorded: tolerance reversal was complete
[2]; chronic i.t. morphine
  duration of reversal of morphine tolerance by the single agent: lasted for multiple days
Rats [4]
  persistence of antinociceptive tolerance blockade after the last i.t. treatment (day 5), tail flick: 2 days

## H-Arg-Gln-Ile-Lys-Ile-Trp-Phe-Gln-Asn-Arg-Arg-Met-Lys-Trp-Lys-Lys-Trp-Gly-Ille-Asp-Lys-Ala-Ser-Phe-Thr-Thr-Phe-Thr-Val-Thr-Lys-Tyr-Trp-Phe-Arg-Tyr-OH (H-RQIKIWFQNRRMKWKKWGIDKASFTTFTVTKYWFRY-OH) [S-CSD]
[1]; FIGS. 6A, 6B
  reversal of spinal morphine antiallodynic tolerance induced by chronic systemic morphine, single agent: failed to alter antiallodynic action of i.t. morphine; also recorded: had no effect
[1]; FIG. 4C
  prevention of antiallodynic tolerance to chronic systemic morphine, male rats: failed to alter morphine tolerance development
[1]; FIG. 4A
  prevention of antiallodynic tolerance to chronic systemic morphine, female rats: remained minimal; also recorded: failed to alter morphine tolerance development
